According to patent EP4733297A1, “INTEGRIN-INHIBITING SMALL MOLECULE COMPOUND” (Antibody Therapeutics, Inc., priority 2023, dated 2024):

What was measured:
interstitial pneumonia = details: reported July 2022; cited from earlier work
[1] = tested on: carbon tetrachloride (CCl4) administration model; assay: 15-day administration experiment in carbon tetrachloride (CCl4) administration model (therapeutic); type: in vivo, mice; details: oral 5 mg/kg twice per day, 5 days per week, from week 4 of 6 weeks of CCl4
Method: In this Example, over a period of 6 weeks, carbon tetrachloride (CCl4) for inducing fibrosis in the liver was administered to mice, and the compound of the present invention (IBF-17) was administered for a total of 15 days over 3 weeks in the latter half of the test, and the state of tissue fibrosis was observed. While Example 4 is examination of a prophylactic effect in which the compound is administered from the start of the test, this Example is examination of a therapeutic effect in which the compound is administered after 3 weeks have passed since administration of carbon tetrachloride (in a state where liver fibrosis has occurred). Specifically, to mice, carbon tetrachloride (diluted 4-fold with olive oil) was intraperitoneally administered at 1 mL/kg twice per week (for example, Monday and Friday, or Tuesday and Friday) for a total of 6 weeks. From week 4 of the start of the test, IBF-17 was orally administered at 5 mg/kg twice per day (with an interval of 8 hours) for 5 days per week (Monday to Friday). After completion of the experiment, the liver was collected and the amount of collagen was quantified by hydroxyproline measurement.

[2] = tested on: bleomycin administration model; assay: 10-day administration experiment in bleomycin administration model; type: in vivo, mice; details: oral 5 mg/kg twice per day, 5 days per week, from 1 week after bleomycin
Method: In this Example, to mice administered with bleomycin for inducing fibrosis in the lung, the compound of the present invention (IBF-17) was administered for a total of 10 days over a period of 2 weeks from 1 week after bleomycin administration, and the state of tissue fibrosis was observed.
Specifically, under deep anesthesia, the neck of mice was incised, bleomycin (diluted with physiological saline) was intratracheally administered once at 1.5 U/kg, and the neck was sutured. From 1 week after bleomycin administration (the time when fibrosis begins to occur), IBF-17 was orally administered at 5 mg/kg twice per day (with an interval of 8 hours) for 5 days per week (Monday to Friday). After completion of the experiment, the lung was collected and expression of fibrosis-related genes (Acta2, Col1a1, Col3a1, and Tnc) was analyzed by qPCR. Further, lung sections were prepared, collagen was stained by Masson-trichrome staining, and the fibrotic area was quantified.

[3] = tested on: unilateral ureteral obstruction (UUO) model; assay: 10-day administration experiment in unilateral ureteral obstruction (UUO) model; type: in vivo, mice; details: kidney, 10 days after ligation; subcutaneous 1 or 5 mg/kg twice per day for 9 days
Method: In this Example, over a period of 10 days, the compound of the present invention (IBF-17) was administered to mice in which the ureter on one side was ligated, and the state of tissue fibrosis was observed. More specifically, mice under deep anesthesia were laparotomized, and two sites of the left ureter were ligated using a nylon thread, and the abdomen was sutured. From 1 day after ligation, IBF-17 was subcutaneously administered daily at 1 or 5 mg/kg twice per day (with an interval of 8 hours) for 9 days. At 10 days after ligation, the kidney was collected and expression of genes regarded as fibrosis markers (Acta2, Col1a1, Col3a1, Ddr2, Tgfb1, Tnc, Trpc6, and Loxl1) was analyzed by qPCR.

[4] = tested on: TGFβ activation by integrin expressed in lung fibroblasts; assay: Effect on TGFβ activation: luciferase reporter coculture of lung fibroblasts and CCL64 reporter cells; type: cell-based, male Wistar rats
Method: In this Example, lung fibroblasts were used as integrin-expressing cells, and the effect of IBF-17, which is a compound of the present invention, on TGFβ activity was examined. Fibroblasts isolated from lungs of male Wistar rats and cultured for 7 days were seeded at 2×10^3 cells per well and incubated for 5 days. After 5 days, IBF-17 or C8 (a known αvβ1 inhibitor) was added so as to give final concentrations of 2, 20, or 200 nM, and 2 hours thereafter, TGFβ-responsive luciferase-producing reporter cells CCL64 were seeded at 2×10^4 cells and cocultured for 18 hours. After that, the cells were lysed, luciferase assay reagent (Promega Corporation) was added, and luciferase activity was measured using a luminometer. The structure of C8, which is a known αvβ1 inhibitor, is as follows. [drawing 43]

[5] = tested on: carbon tetrachloride (CCl4) administration model; assay: 3-day administration experiment in carbon tetrachloride (CCl4) administration model; type: in vivo, mice; details: liver, 72 hours after CCl4; subcutaneous 1 mg/kg twice per day
Method: In this Example, carbon tetrachloride (CCl4) for inducing fibrosis in the liver was administered once to mice, and thereafter, the compound of the present invention (IBF-17) was administered for 3 days, and then the liver was collected and observed. More specifically, carbon tetrachloride (diluted 4-fold with olive oil) was intraperitoneally administered once at 2 mL/kg to mice that had been fasted for half a day from the day before the test. IBF-17 was subcutaneously administered daily at 1 mg/kg twice per day (with an interval of 8 hours), including the day of carbon tetrachloride administration. At 72 hours after carbon tetrachloride administration, the mice were dissected and the liver was collected, and expression of fibrosis marker genes (Acta2, Col1a1, Col3a1, Tgfb1, Loxl1, and Ddr2) was analyzed by qPCR.

NASH model = assay: 8-week administration experiment in NASH model (CDAHFD diet); type: in vivo, mice; details: oral, 8 weeks
Method: In this Example, over a period of 8 weeks, while providing mice with CDAHFD (choline-deficient amino acid-restricted high-fat diet), compounds of the present invention (IBF-17, IBF-18, and IBF-20) were administered, and the state of tissue fibrosis was observed. More specifically, mice were fed with a special diet CDAHFD (Research Diets) for inducing a human NASH-like pathological condition for a total of 8 weeks, replacing with new diet twice per week (for example, Monday and Friday, or Tuesday and Friday). Throughout the entire test period, IBF-17, IBF-18, or IBF-20 was orally administered daily at 1, 3, or 10 mg/kg twice per day (with an interval of 8 hours). After completion of the experiment, the amount of collagen in the liver was quantified by hydroxyproline measurement, and, for IBF-17, in addition to staining specimens with Sirius red, which specifically stains collagen, to quantify the fibrotic area, expression of genes regarded as fibrosis markers (Acta2, Col1a1, and Timp-1) was analyzed by qPCR. In addition, body weight of each mouse during the feeding period (CDAHFD temporarily decreases at the initial stage of feeding) was measured, and the weight of the collected liver was measured.

[6] = tested on: carbon tetrachloride (CCl4) administration model; assay: 8-week administration experiment in carbon tetrachloride (CCl4) administration model; type: in vivo, mice; details: oral, 8 weeks
Method: In this Example, over a period of 8 weeks, carbon tetrachloride (CCl4) for inducing fibrosis in the liver and compounds of the present invention (IBF-17, IBF-18, and IBF-20) were administered to mice, and the state of tissue fibrosis was observed.
To mice, carbon tetrachloride (diluted 4-fold with olive oil) was intraperitoneally administered at 1 mL/kg twice per week (for example, Monday and Friday, or Tuesday and Friday) for a total of 8 weeks. Throughout the entire test period, IBF-17, IBF-18, or IBF-20 was orally administered daily at 1 or 10 mg/kg twice per day (with an interval of 8 hours). After completion of the experiment, the liver was collected, and the amount of collagen was quantified by hydroxyproline measurement, and a specimen was stained with Sirius red to quantify the fibrotic area. In addition, expression of fibrosis markers, Col1a1 and Acta2 (α-SMA) genes, was analyzed by qPCR.

[7] = tested on: rat lung-derived fibroblasts; assay: Differentiation of fibroblasts into myofibroblasts, α-SMA western blotting; type: cell-based; details: TGFβ stimulation 96 hours
Method: In this Example, the effect of IBF-17, which is a compound of the present invention, on differentiation of fibroblasts into myofibroblasts was examined. The medium was replaced with a serum-free medium, and rat lung-derived fibroblasts isolated in Example 2 were cultured for 24 hours. After culturing, IBF-17 was added so as to give final concentrations of 2, 20 nM, or 200 nM, and C8 was added so as to give final concentrations of 2, 20, or 200 nM, followed by reaction for 2 hours. After the reaction, recombinant human TGFβ1 was added so as to give a final concentration of 5 ng/mL, and stimulation was carried out for 96 hours to induce differentiation into myofibroblasts. After induction of differentiation, protein was extracted from the cells and western blotting was performed, a band of α-SMA, which is a differentiation marker, was detected, and the band was quantified as a relative band intensity with respect to glyceraldehyde-3-phosphate dehydrogenase (GAPDH), which is a control.
From this Example, differentiation of fibroblasts into myofibroblasts (by […] TGFβ) was evaluated using α-smooth muscle actin as marker.

[8] = liver, 1 or 10 mg/kg twice per day

COCCN(CCCCc1ccc2c(n1)NCCC2)CC[C@H](Nc1ncnc2ccccc12)C(=O)O [PLN-74809]
efficacy in early Phase 2a of a clinical trial (interstitial pneumonia): proven efficacy

O=C(O)C[C@H](NC(=O)CNC(=O)c1cc(O)cc(NC2=NCC(F)CN2)c1)c1cccc(S(F)(F)(F)(F)F)c1 (stereo partly drawn) [IBF-17, (3S)-3-(2-{3-[(5-fluoro-1,4,5,6-tetrahydropyrimidin-2-yl)amino]-5-hydroxybenzamido}acetamido)-3-[3-(pentafluorosulfanyl)phenyl]propanoic acid]
amount of hydroxyproline in mouse liver [1]: significantly decreased | mRNA expression of Col1a1 (qPCR) ([2]; lung): significantly decreased | mRNA expression of Col3a1 (qPCR) ([2]; lung): significantly decreased | fibrotic area of lung (Masson-trichrome staining) [2]: significantly decreased | mRNA expression of Acta2 (qPCR) [3]: decreasing tendency | mRNA expression of Col1a1 (qPCR) [3]: significant decreases | mRNA expression of Col3a1 (qPCR) [3]: significant decreases | mRNA expression of Ddr2 (qPCR) [3]: significant decreases | mRNA expression of Loxl1 (qPCR) [3]: significant decreases | mRNA expression of Tgfb1 (qPCR) [3]: decreasing tendency | mRNA expression of Tnc (qPCR) [3]: decreasing tendency | mRNA expression of Trpc6 (qPCR) [3]: decreasing tendency | activation of TGFβ (luciferase activity) ([4]; 200 nM): almost completely inhibited | activation of TGFβ (luciferase activity) ([4]; concentration range of 2 to 200 nM, coculture 18 hours): suppressed activation of TGFβ in a concentration-dependent manner | mRNA expression of Col1a1 (qPCR) [5]: clearly decreased | mRNA expression of Col3a1 (qPCR) [5]: clearly decreased | mRNA expression of six fibrosis markers (Acta2, Col1a1, Col3a1, Tgfb1, Loxl1, Ddr2) (qPCR) [5]: all of these markers were decreased | hydroxyproline amount of liver tissue (NASH model; any dose (1, 3, and 10 mg/kg) twice per day, versus no administration): decreases in hydroxyproline amount were observed | mRNA expression of fibrosis markers (Acta2, Col1a1, Timp-1) (qPCR) (NASH model; any of 1, 3, and 10 mg/kg twice per day): uniformly decreased fibrosis markers | fibrotic area in tissue specimens (Sirius red) (NASH model; any of 1, 3, and 10 mg/kg twice per day, versus non-administration group): reduced the fibrotic area | mRNA expression of Acta2 (qPCR) [6, 8]: tends to be decreased | mRNA expression of Col1a1 (qPCR) [6, 8]: tends to be decreased | amount of hydroxyproline in liver tissue ([6]; 1 mg/kg twice per day): showed an effect | amount of hydroxyproline in liver tissue ([6]; 1 or 10 mg/kg twice per day): decreased the amount of hydroxyproline | Sirius red-stained area of liver tissue ([6]; both 1 mg/kg and 10 mg/kg twice per day, versus non-administration group, decrease followed the dose): decreased | inhibition of differentiation of fibroblasts into myofibroblasts (α-SMA band intensity) ([7]; 2 nM): inhibition of differentiation was observed | inhibition at 0.02 µM ([7]; Rattus norvegicus, Fibroblast, 20 nM, read-out: inhibition of differentiation of fibroblasts into myofibroblasts (α-SMA band intensity)): ≥ 80%
